Article PMC5412877, “Discovery of a PCAF Bromodomain Chemical Probe” (Angewandte Chemie (International Ed. in English), 2016)
Read-outs that look alike come from different tables or passages of the source. Values belong to the compound of their own block, whether it stands above or below them.

Key:
PCAF Brd [1] = biological target: T1, PCAF Brd (Homo sapiens, UniProt Q92831); test: Differential scanning fluorimetry (DSF), PCAF Brd; assay type: binding; conditions: for ΔT m [°C] PCAF (DSF): compound concentration 10 μM
T1 construct: Human bromodomains were cloned, expressed and purified as previously described; made in house
T1 sequence (Q92831 723-827 limits assumed): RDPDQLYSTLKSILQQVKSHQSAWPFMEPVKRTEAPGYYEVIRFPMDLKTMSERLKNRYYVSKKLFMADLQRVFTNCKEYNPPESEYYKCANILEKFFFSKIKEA
Method: (§1) Protein Expression and Purification
(§2) Human bromodomains were cloned, expressed and purified as previously described.[1]
(§3) Differential Scanning Fluorimetry (DSF)
(§4) Thermal melting points were recorded using an Mx3005p Real Time PCR Machine (Stratagene).
(§5) Subject proteins were buffered in 10 mM HEPES at pH 7.5, 500 mM NaCl and assayed in a 96-well […]
(§6) plate at a final concentration of 2 μM in 20 μL volume. Compounds were then added to a final […]
(§7) concentration of 10 μM. SPYRO Orange (Molecular Probes) was used as a fluorescent probe at a […]
(§8) dilution of 1:1000. Excitation and emission filters for the SPYRO-Orange dye were set to 465 nm and […]
(§9) 590 nm, respectively. The temperature was raised with a step of 3 °C/min from 25 °C to 96 °C and […]
(§10) fluorescence readings were taken at each interval. Data was analysed as previously described.[2]
(§11) Bromodomain affinity selectivity panel of (S)-11
(§12) Supplemental Figure 1. DSF Selectivity panel of (S)-11 against 48 human Bromodomains. […]
(§13) ┼Mean ΔTm ± SEM (number of measurements= 2). Compound concentration: 10 μM […]
(§14) (1 picture or pasted object on this page, not shown here)

GCN5L2 = biological target: T2, GCN5L2 (Homo sapiens, UniProt Q92830); test: Differential scanning fluorimetry (DSF), GCN5 (GCN5L2) Brd; assay type: binding; conditions: compound 10 μM
T2 construct: made in house
T2 sequence (Q92830 728-832 limits assumed): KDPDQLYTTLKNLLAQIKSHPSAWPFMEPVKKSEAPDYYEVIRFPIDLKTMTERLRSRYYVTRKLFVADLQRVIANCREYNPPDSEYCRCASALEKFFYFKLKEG
Method: as §1, §2, §3, §4, §5, §6, §7, §8, §9, §10, §11, §12, §13, §14

PCAF Brd [2] = biological target: T1, PCAF Brd; test: Isothermal titration calorimetry (ITC), PCAF Brd; assay type: binding
Method: Isothermal Titration Calorimetry (ITC)
Experiments were carried out on a Nano-ITC Standard Volume Instrument (TA Instruments). All experiments were carried out at 25 °C in 20 mM HEPES pH 7.5, 150 mM NaCl, 0.5 mM TCEP and 5% glycerol. Protein solutions were buffer exchanged by gel filtration. The titrations were conducted using an initial injection of 2 μL followed by 32 injections of 8 μL. Background dilution heat was substracted from each experiment. Thermodynamic parameters were calculated using ΔG = ΔH-T ΔS = -RTlnKB , where KD = 1/KB. ΔG, ΔH and ΔS are changes in free energy, enathalpy and entropy resepectively. Independent single site binding models were employed in data analysis.
Supplemental Figure 3. ITC trace of D-Moses and PCAF Brd […]

[3] = Metabolic stability in human liver microsomes; assay type: in vitro ADME
Method: (§15) In vitro Metabolism Studies
(§16) Metabolic stability studies were carried out exposing nominated compounds to samples of liver microsomes. Compounds were analysed by LC-MS for loss of compound at 0, 5, 15, 30 and 45 minute time points. The rate of metabolic degradation of compounds was used to calculate CLint, SE CLint, t1/2 (summarised in supplemental table 2.)
(§17) Supplemental Table 4. In vitro metabolic stability of compounds DL-45/DL-Moses and 39 Compound Metbolic Stability (Human) Metbolic Stability (Mouse) […]

[4] = Metabolic stability in mouse liver microsomes; assay type: in vitro ADME
Method: as §15, §16, §17

PCAF Brd [5] = conditions: cited from earlier work
HIV‐1 = conditions: cited from earlier work
48 human Brds = test: DSF selectivity panel of 48 human bromodomains; assay type: binding; conditions: compound 10 μM
GST-PCAFBRD = biological target: T3, GST-PCAFBRD (Homo sapiens, UniProt Q92831); test: HTRF assay, displacement of biotinylated compound 46 from GST-PCAF Brd; assay type: binding; conditions: GST-PCAF Brd; read-out: KD of compound 46 used for Cheng-Prusoff
T3 construct: Final assay concentrations: GST-PCAFBRD (20 nM)
T3 sequence (Q92831 723-827 limits assumed): T1 sequence (Q92831 723-827 limits assumed)
Method: obtained from 5 healthy donors. PBMC were cultured either with D-Moses or L-Moses at concentrations of 0.1, 1 and 10 μM or with a control (DMSO) for 24 hours. Viability of PBMC were then checked using LIVE/DEAD Fixable Aqua Dead Cell Stain Kit (ThermoFisher Scientific).
High Throughput Time Resolved Fluorescence Assay (HTRF)
HTRF assay was carried out using a Cisbio Epigenous kit B (62BDBPEH) using the standard assay protocol with GST-PCAFBRD.[3] Final assay concentrations: GST-PCAFBRD (20 nM), SA-XL665 (62.5 nM), α-GST donor (62.5 nM), compound 46 (500 nM). Ki was calculated using the Cheng-Prussof equation […]
Recombinant PfGCN5 (bromodomain only) was expressed in E. coli and purified using a previously described system. The protein crystallized with the compound L-45 at 293 K in 0.1M CaCl2, 30% PEG 8k, 0.2 M NH4SO4. The concentrations of the protein sample and the compound were 10 mg/ml […]
X-ray diffraction data for the crystal was collected at 100 K at the beamline 08ID-1 of the Canadian Macromolecular Crystallography Facility. The dataset was processed using the HKL-2000 suite, and the structure solved using Phaser, a component of the CCP4 suite with molecular replacement model 4QNS. […]

PCAF = tested on: PCAF; parameters: method as in earlier work; conditions: read-out: PCAF AlphaLISA IC50; cited from earlier work
[6] = read-out: GCN5L2 ΔTm (°C) (DSF)

Structure (SMILES): NCCCNCc1ccc(NCCCN)[n+]([O-])c1 [Compound 2]
IC50 (PCAF Brd [5]): 930 nM
EC50 (HIV‐1; read-out: HIV-1 EC50): 11500 nM

Structure (SMILES): Cc1ccc(NCCCN)c([N+](=O)[O-])c1 [Compound 1]
EC50 (HIV‐1; ref 8c, read-out: HIV-1 EC50 (disrupting HIV‐1 replication)): 2800 nM

Structure (SMILES): CC(C)C[C@H]1C[C@@H](Nc2cnn(C)c(=O)c2Cl)CN(C)C1 [Compound 3]
IC50 (PCAF): 13 nM

Further lines, with some results ahead:

ΔT m [°C] PCAF (DSF) (PCAF Brd [1]): 8.3 °C
ΔTm at 10 µM (GCN5L2; [6]): 4.4 °C
Kd (PCAF Brd [2]; Table 2, read-out: K D (nM) (ITC) PCAF Brd): 195 ± 23 nM
microsomal CLint ([3]; human liver microsomes, n 5, read-out: CLint (μL/min/mg protein) human): 29 µL/min/mg
half-life ([3]; human, liver microsomes, read-out: t1/2 human liver microsomes): 48 min
microsomal CLint ([4]; mouse liver microsomes, n 5, read-out: CLint (μL/min/mg protein) mouse): 21 µL/min/mg
half-life ([4]; mouse, liver microsomes, read-out: t1/2 mouse liver microsomes): 65 min
Structure (SMILES): Cc1nnc2c3ccccc3c(N[C@@H](C)[C@H](c3ccc(F)cc3)N(C)C)nn12 (relative stereo) [Compound 39]

ΔTm at 10 µM (PCAF Brd [1]; Supplemental Table 1, number of measurements 2, compound 10 μM, read-out: PCAF ΔTm (°C), mean ± SEM): 5.4 °C
ΔT m [°C] PCAF (DSF) (PCAF Brd [1]): 7.4 °C
ΔTm at 10 µM (GCN5L2; Supplemental Table 1, number of measurements 2, read-out: GCN5L2 ΔTm (°C), mean ± SEM): 3.7 °C
ΔTm at 10 µM (GCN5L2; [6]): 4 °C
Kd (PCAF Brd [2]; Supplemental Table 3, compound concentration 30 μM, protein concentration 280-320 μM, read-out: PCAF KD (μM) (ITC)): 284 nM
Kd (PCAF Brd [2]; Table 1, read-out: K D [μM] (ITC) PCAF Brd): 280 ± 29 nM
Structure (SMILES): Cc1nnc2c3ccccc3c(N[C@@H](C)CN(C)C)nn12 [(S)‐11]
selectivity in DSF panel of 48 human Brds (48 human Brds): no observable activity against other Brds

Kd (GST-PCAFBRD): 400 nM
Structure (SMILES): Cc1nnc2c3ccccc3c(NCC(NCCCCNC(=O)CCOCCOCCOCCOCCNC(=O)CCCCC3SCC4NC(=O)NC43)c3ccccc3)nn12 (stereo not shown) [compound 46, reference compound]
